Reference: the supplement of paper PMC11962398

Key:
[1] = compound: T1, C[C@H]1CNCCN1c1nccc(-c2noc3c2CCC[C@@]32CCCc3sc(N)c(C#N)c32)n1 [BI-2493]; assay: 1 - AUC of viability dose-response curve (sensitivity) (fraction); higher = more sensitive; details: 5 days
Description: (§1)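 PRISM pooled barcoded cancer cell line viability screen (Broad Institute) with BI-2493 at 8 doses in threefold dilutions from 0.00457 to 10 µmol/L, 5-day treatment; curves fitted per cell line. IC50 is undefined (placeholder) for resistant lines. AUC is capped at 1, and sensitivity is reported as 1 − AUC.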

[2] = compound: T1, BI-2493; details: 5 days
Description: as §1

Test System: C33A_CERVIX
- 1 - AUC of viability dose-response curve [1]: 0.131
- IC50 of cell viability [2]: 3.53 µM

Test System: C75_LARGE_INTESTINE
- 1 - AUC of viability dose-response curve [1]: 0.22
- IC50 of cell viability [2]: 9.28 µM

Test System: C80_LARGE_INTESTINE
- 1 - AUC of viability dose-response curve [1]: 0.3
- IC50 of cell viability [2]: 0.477 µM

Test System: C8166_HAEMATOPOIETIC_AND_LYMPHOID_TISSUE
- 1 - AUC of viability dose-response curve [1]: 0.00732
- IC50 of cell viability [2]: 9.65 µM

Test System: CADOES1_BONE
- 1 - AUC of viability dose-response curve [1]: 0.00999
- IC50 of cell viability [2]: 9.64 µM

Test System: CAKI1_KIDNEY
- 1 - AUC of viability dose-response curve [1]: 0.0185
- IC50 of cell viability [2]: 9.29 µM

Test System: CAL12T_LUNG
- 1 - AUC of viability dose-response curve [1]: 0.201
- IC50 of cell viability [2]: 4.93 µM

Test System: CAL27_UPPER_AERODIGESTIVE_TRACT
- 1 - AUC of viability dose-response curve [1]: 0.241
- IC50 of cell viability [2]: 3.79 µM

Test System: CAL29_URINARY_TRACT
- 1 - AUC of viability dose-response curve [1]: 0.264
- IC50 of cell viability [2]: 2.5 µM

Test System: CAL33_UPPER_AERODIGESTIVE_TRACT
- 1 - AUC of viability dose-response curve [1]: 0.142
- IC50 of cell viability [2]: 6.54 µM

Test System: CAL51_BREAST
- 1 - AUC of viability dose-response curve [1]: 0.0624
- IC50 of cell viability [2]: 9.13 µM

Test System: CAL54_KIDNEY
- 1 - AUC of viability dose-response curve [1]: 0.00233
- IC50 of cell viability [2]: > 10 µM

Test System: CAL62_THYROID
- 1 - AUC of viability dose-response curve [1]: 0.0045
- IC50 of cell viability [2]: > 10 µM

Test System: CAL72_BONE
- 1 - AUC of viability dose-response curve [1]: 0.176
- IC50 of cell viability [2]: > 10 µM

Test System: CAL78_BONE
- 1 - AUC of viability dose-response curve [1]: 0.0497
- IC50 of cell viability [2]: 7.37 µM

Test System: CAL120_BREAST
- 1 - AUC of viability dose-response curve [1]: 0.0763
- IC50 of cell viability [2]: > 10 µM

Test System: CAL148_BREAST
- 1 - AUC of viability dose-response curve [1]: < 0
- IC50 of cell viability [2]: > 10 µM

Test System: CALU1_LUNG
- 1 - AUC of viability dose-response curve [1]: 0.0917
- IC50 of cell viability [2]: 5.25 µM

Test System: CALU6_LUNG
- 1 - AUC of viability dose-response curve [1]: 0.00583
- IC50 of cell viability [2]: 9.77 µM

Test System: CAMA1_BREAST
- 1 - AUC of viability dose-response curve [1]: 0.00667
- IC50 of cell viability [2]: > 10 µM

Test System: CAOV3_OVARY
- 1 - AUC of viability dose-response curve [1]: 0.0615
- IC50 of cell viability [2]: > 10 µM

Test System: CAPAN2_PANCREAS
- 1 - AUC of viability dose-response curve [1]: 0.303
- IC50 of cell viability [2]: 1.2 µM

Test System: CAS1_CENTRAL_NERVOUS_SYSTEM
- 1 - AUC of viability dose-response curve [1]: 0.0158
- IC50 of cell viability [2]: 9.1 µM

Test System: CASKI_CERVIX
- 1 - AUC of viability dose-response curve [1]: 0.0572
- IC50 of cell viability [2]: 8.68 µM

Test System: CCFSTTG1_CENTRAL_NERVOUS_SYSTEM
- 1 - AUC of viability dose-response curve [1]: 0.00118
- IC50 of cell viability [2]: > 10 µM

Test System: CCK81_LARGE_INTESTINE
- 1 - AUC of viability dose-response curve [1]: 0.0958
- IC50 of cell viability [2]: 6.18 µM

Test System: CCLP1_BILIARY_TRACT
- 1 - AUC of viability dose-response curve [1]: 0.0617
- IC50 of cell viability [2]: 7.32 µM

Test System: CCSW1_BILIARY_TRACT
- 1 - AUC of viability dose-response curve [1]: 0.14
- IC50 of cell viability [2]: 5.45 µM

Test System: CFPAC1_PANCREAS
- 1 - AUC of viability dose-response curve [1]: 0.15
- IC50 of cell viability [2]: 4.12 µM

Test System: CH157MN_CENTRAL_NERVOUS_SYSTEM
- 1 - AUC of viability dose-response curve [1]: 0.0235
- IC50 of cell viability [2]: 8.61 µM

Test System: CHAGOK1_LUNG
- 1 - AUC of viability dose-response curve [1]: 0.173
- IC50 of cell viability [2]: 4.47 µM

Test System: CHL1_SKIN
- 1 - AUC of viability dose-response curve [1]: 0.14
- IC50 of cell viability [2]: 4.96 µM

Test System: CHLA06ATRT_SOFT_TISSUE
- 1 - AUC of viability dose-response curve [1]: 0.141
- IC50 of cell viability [2]: 7.12 µM

Test System: CHLA15_AUTONOMIC_GANGLIA
- 1 - AUC of viability dose-response curve [1]: 0.187
- IC50 of cell viability [2]: 5.41 µM

Test System: CHLA57_BONE
- 1 - AUC of viability dose-response curve [1]: 0.211
- IC50 of cell viability [2]: 3.06 µM

Test System: CHLA200_CENTRAL_NERVOUS_SYSTEM
- 1 - AUC of viability dose-response curve [1]: 0.0104
- IC50 of cell viability [2]: 9.58 µM

Test System: CHP212_AUTONOMIC_GANGLIA
- 1 - AUC of viability dose-response curve [1]: 0.00818
- IC50 of cell viability [2]: 9.9 µM

Test System: CJM_SKIN
- 1 - AUC of viability dose-response curve [1]: 0.11
- IC50 of cell viability [2]: 5.39 µM

Test System: CL11_LARGE_INTESTINE
- 1 - AUC of viability dose-response curve [1]: 0.117
- IC50 of cell viability [2]: 5.92 µM

Test System: CL34_LARGE_INTESTINE
- 1 - AUC of viability dose-response curve [1]: 0.00172
- IC50 of cell viability [2]: > 10 µM

Test System: CMLT1_HAEMATOPOIETIC_AND_LYMPHOID_TISSUE
- 1 - AUC of viability dose-response curve [1]: 0.129
- IC50 of cell viability [2]: 4.55 µM

Test System: COGN278_AUTONOMIC_GANGLIA
- 1 - AUC of viability dose-response curve [1]: 0.0701
- IC50 of cell viability [2]: 7.86 µM

Test System: COLO320_LARGE_INTESTINE
- 1 - AUC of viability dose-response curve [1]: 0.057
- IC50 of cell viability [2]: 7.35 µM

Test System: COLO668_LUNG
- 1 - AUC of viability dose-response curve [1]: 0.103
- IC50 of cell viability [2]: 5.95 µM

Test System: COLO679_SKIN
- 1 - AUC of viability dose-response curve [1]: 0.146
- IC50 of cell viability [2]: 4.47 µM

Test System: COLO680N_OESOPHAGUS
- 1 - AUC of viability dose-response curve [1]: 0.0719
- IC50 of cell viability [2]: 8.49 µM

Test System: COLO741_SKIN
- 1 - AUC of viability dose-response curve [1]: 0.00696
- IC50 of cell viability [2]: 9.66 µM

Test System: COLO783_SKIN
- 1 - AUC of viability dose-response curve [1]: 0.176
- IC50 of cell viability [2]: 5.22 µM

Test System: COLO792_SKIN
- 1 - AUC of viability dose-response curve [1]: 0.221
- IC50 of cell viability [2]: 7.62 µM

Test System: COLO800_SKIN
- 1 - AUC of viability dose-response curve [1]: 0.0454
- IC50 of cell viability [2]: 7.65 µM

Test System: CORL23_LUNG
- 1 - AUC of viability dose-response curve [1]: 0.0991
- IC50 of cell viability [2]: 5.82 µM

Test System: CORL88_LUNG
- 1 - AUC of viability dose-response curve [1]: 0.143
- IC50 of cell viability [2]: 4.54 µM

Test System: CORL105_LUNG
- 1 - AUC of viability dose-response curve [1]: 0.157
- IC50 of cell viability [2]: > 10 µM

Test System: CORL279_LUNG
- 1 - AUC of viability dose-response curve [1]: 0.134
- IC50 of cell viability [2]: 7.86 µM

Test System: COV318_OVARY
- 1 - AUC of viability dose-response curve [1]: 0.0643
- IC50 of cell viability [2]: > 10 µM

Test System: COV362_OVARY
- 1 - AUC of viability dose-response curve [1]: 0.00606
- IC50 of cell viability [2]: > 10 µM

Test System: COV434_OVARY
- 1 - AUC of viability dose-response curve [1]: 0.191
- IC50 of cell viability [2]: 3.6 µM

Test System: COV644_OVARY
- 1 - AUC of viability dose-response curve [1]: 0.157
- IC50 of cell viability [2]: 7.18 µM

Test System: CW2_LARGE_INTESTINE
- 1 - AUC of viability dose-response curve [1]: 0.071
- IC50 of cell viability [2]: 8.55 µM

Test System: CW9019_SOFT_TISSUE
- 1 - AUC of viability dose-response curve [1]: 0.111
- IC50 of cell viability [2]: 3.99 µM

Test System: DAOY_CENTRAL_NERVOUS_SYSTEM
- 1 - AUC of viability dose-response curve [1]: 0.0237
- IC50 of cell viability [2]: 9.62 µM

Test System: DBTRG05MG_CENTRAL_NERVOUS_SYSTEM
- 1 - AUC of viability dose-response curve [1]: 0.0396
- IC50 of cell viability [2]: 7.98 µM

Test System: DETROIT562_UPPER_AERODIGESTIVE_TRACT
- 1 - AUC of viability dose-response curve [1]: 0.18
- IC50 of cell viability [2]: 2.81 µM

Test System: DKMG_CENTRAL_NERVOUS_SYSTEM
- 1 - AUC of viability dose-response curve [1]: 0.112
- IC50 of cell viability [2]: 4.05 µM

Test System: DL_SOFT_TISSUE
- 1 - AUC of viability dose-response curve [1]: 0.192
- IC50 of cell viability [2]: 4.57 µM

Test System: DMS53_LUNG
- 1 - AUC of viability dose-response curve [1]: 0.114
- IC50 of cell viability [2]: 6.38 µM

Test System: DMS79_LUNG
- 1 - AUC of viability dose-response curve [1]: 0.0188
- IC50 of cell viability [2]: > 10 µM

Test System: DMS273_LUNG
- 1 - AUC of viability dose-response curve [1]: 0.265
- IC50 of cell viability [2]: 2.81 µM

Test System: DND41_HAEMATOPOIETIC_AND_LYMPHOID_TISSUE
- 1 - AUC of viability dose-response curve [1]: 0.156
- IC50 of cell viability [2]: 4.59 µM

Test System: DOTC24510_CERVIX
- 1 - AUC of viability dose-response curve [1]: 0.0765
- IC50 of cell viability [2]: 6.38 µM

Test System: DU145_PROSTATE
- 1 - AUC of viability dose-response curve [1]: 0.172
- IC50 of cell viability [2]: > 10 µM

Test System: DU4475_BREAST
- 1 - AUC of viability dose-response curve [1]: 0.151
- IC50 of cell viability [2]: 2.96 µM

Test System: DV90_LUNG
- 1 - AUC of viability dose-response curve [1]: 0.308
- IC50 of cell viability [2]: 0.856 µM

Test System: EB1_HAEMATOPOIETIC_AND_LYMPHOID_TISSUE
- 1 - AUC of viability dose-response curve [1]: 0.0219
- IC50 of cell viability [2]: 9.47 µM

Test System: EBC1_LUNG
- 1 - AUC of viability dose-response curve [1]: 0.0696
- IC50 of cell viability [2]: 6.97 µM

Test System: ECC2_BILIARY_TRACT
- 1 - AUC of viability dose-response curve [1]: < 0
- IC50 of cell viability [2]: > 10 µM

Test System: ECC10_STOMACH
- 1 - AUC of viability dose-response curve [1]: 0.0829
- IC50 of cell viability [2]: 4.51 µM
